Test results: ChEMBL document CHEMBL3507680, “University of Dundee, Gates Library screen for HepG2 cell viability”

Experiment: Human HepG2 cell viability assay in 384 well format
Type: toxicity, cell-based
Parameters: dose 125 nL, time 70.5 hour; concentration not given beside the values
Settings: HepG2 cells, read-out: Inhibition

Row | Structure (SMILES) | cytotoxicity at 70.5 h [%]
1 | CC(NC(=O)NCCN1CCCCCC1=O)c1ccc(Cl)s1 (stereo not drawn) | -10.6
2 | N#Cc1ccc(N2CCCN(CC(=O)N3CCNC(=O)C3)CC2)cc1 | 3.9
3 | COCCN1CCC(CNC(=O)C2(NC(C)=O)CCCCC2)CC1 | -8.37
4 | CNC(=O)CN1CCC(NC(=O)Cc2ccccc2OC(C)C)CC1 | -10.8
5 | Cc1ccccc1C1(CNC(=O)c2ccc(S(C)(=O)=O)cc2)CC1 | 3.63
6 | CCn1c(CN(C)CC(=O)N(C)C)nc2c(F)cccc21 | -11.7
7 | CC1CN(C(=O)c2cscn2)c2ccccc2S1 (stereo not drawn) | 21
8 | Cc1nc(C(=O)N2CC(C)Sc3ccccc32)cs1 (stereo not drawn) | -7.31
9 | OCC(O)CSCc1cn(-c2ccc(Cl)cc2)nn1 (stereo not drawn) | 0.0879
10 | CN(Cc1cccs1)C(=O)CN(C)C1CCc2ccccc21 (stereo not drawn) | -7.67
11 | COCCN1CCC(CNC(=O)C2(C#N)CCCC2)CC1 | 17.6
12 | Cc1nc(C)n(Cc2cccc(NC(=O)N(C)CCC(C)O)c2)n1 (stereo not drawn) | -7.61
13 | CCC1(CNCc2ncc[nH]2)CCCC1 | -13.3
14 | O=C(c1ncoc1-c1ccco1)N1CCCN(c2ncccn2)CC1 | -12.9
15 | CN(Cc1ccc(Cl)s1)C(=O)CN(C)C1CCc2ccccc21 (stereo not drawn) | -13.1
16 | CNC(=O)N1C[C@H]2N(c3ncccn3)CCC[C@@]2(C(=O)NCC2CC2)C1 | 0.471
17 | CC(C)Nc1ncnc2c1CCN(C(=O)NCc1cccc(F)c1)CC2 | -7.17
18 | CO[C@@H]1CO[C@@]2(CCCN(C(=O)C3CC=CC3)C2)C1 | -1.96
19 | O=C(NCc1ccccn1)[C@@]12CCO[C@@H]1CCN(c1ncccn1)C2 | -4.87
20 | CC(=O)N1CCC2(CC1)c1ncc(-c3cccnc3)n1CCN2C | 0.401

Row | Structure (SMILES) | cytotoxicity at 70.5 h [%]
21 | CC(=O)N1CCC2(CC1)c1ncc(-c3ccccc3)n1CCN2C | -9.38
22 | O=C(c1ccco1)N1CCC2(CCCN(c3ncc(F)cn3)C2)C1 (stereo not drawn) | 13.2
23 | CCCS(=O)(=O)N1C[C@@H](c2ccccc2)[C@@]2(CCNC2=O)C1 | 5.81
24 | CC(C)Nc1nc(-c2ccccc2)nc2c1CCN(C(=O)CC#N)CC2 | -3.92
25 | COCC(=O)N1CCc2nc(NC(C)C)nc(NC(C)C)c2CC1 | -0.713
26 | CC(=O)N1CCO[C@@H]2CN(S(=O)(=O)C3CC3)C[C@@H]2C1 | -0.958
27 | CCOC[C@@]12CCC[C@@H]1CN(C(=O)COc1ccccc1OC)C2 | -8.07
28 | O=C(N[C@@H]1CN(Cc2ccoc2)C[C@@H]2CCCO[C@@H]21)C1CCC1 | -11.2
29 | CC(=O)N1CCOC2(CCN(C(=O)C3CC3)CC2)C1 | -10.3
30 | Cn1nnc2c1C(COCC1CC1)CN(C(=O)CC1=CCCCC1)C2 (stereo not drawn) | -2
31 | Cc1nc(C)c2c(n1)CCN(C(=O)C1(C#N)CC1)CC2 | -1.89
32 | COc1nn(C)c2c1CCCN(C(=O)c1c[nH]cn1)C2 | -1.78
33 | Cn1nc(C#N)c2c1CN(C(=O)c1c[nH]cn1)CCC2 | -7.05
34 | Cc1nc2c(c(NC3CC3)n1)CCN(C(=O)C1(C#N)CC1)CC2 | -16.3
35 | COCC1CN(S(=O)(=O)c2ccccc2)Cc2ncnn2C1 (stereo not drawn) | -6.59
36 | COCC1CN(S(=O)(=O)c2cccs2)Cc2ncnn2C1 (stereo not drawn) | -12.8
37 | Cc1ccc(N2CCCC3(CCN(C(=O)CC(F)(F)F)C3)C2)nn1 (stereo not drawn) | -10.2
38 | CCN1CCC2(CC1)CC(NC(=O)c1c[nH]cn1)c1ccccc1O2 (stereo not drawn) | -6.71
39 | CCc1nnc(CN2CCC(C3CCCCCN3C(C)=O)CC2)o1 (stereo not drawn) | 8.88
40 | Cc1nccc(NCc2cncc3c2CCN(S(C)(=O)=O)C3)n1 | 1.9

Row | Structure (SMILES) | cytotoxicity at 70.5 h [%]
41 | CN(Cc1ccco1)Cc1cncc2c1CCN(Cc1ccoc1)C2 | -8.02
42 | CN1CCc2c(CNC(=O)c3nccn3C)cncc2C1 | -0.526
43 | Cc1noc(C)c1CN1CCC2(CC1)NC(=O)CC2c1ccccc1 (stereo not drawn) | 2.78
44 | Cc1ccc(CN2CCC3(CC2)C(c2ccccc2)CC(=O)N3C)o1 (stereo not drawn) | 0.715
45 | CS(=O)(=O)N1CC[C@H]2OCC[C@@]2(C(=O)NCc2ccccn2)C1 | -2.32
46 | CCn1ncc2c1C(COC)N(C(=O)CCc1ccccc1)CC2 (stereo not drawn) | 11.6
47 | CN1CCCN(C(=O)c2ccnn2-c2ccc3ccccn23)CC1 | 12.9
48 | O=C([C@H]1CCCO1)N1CCN(CCn2cccn2)c2ncccc2C1 | -5.29
49 | Cc1cnc(CNC(=O)[C@@]23CCO[C@@H]2CCN(C2CCCC2)C3)cn1 | -1.73
50 | O=C(C1CCOC1)N1CCN(CCn2cccn2)c2ncccc2C1 (stereo not drawn) | -1.8
51 | Cc1oncc1C(=O)N[C@@H]1CN(C2CCC2)C[C@@H]2CCCO[C@@H]21 | -0.67
52 | O=C(COC[C@]12COC[C@H]1CN(C1CCC1)C2)N1CCCC1 | 3.04
53 | CN(C)C1CCN(C(=O)c2ccnn2-c2ccc3ccccn23)CC1 | -5.01
54 | CC(C)CNC(=O)N1CCC2(CC1)OC(C(N)=O)Cn1ccnc12 (stereo not drawn) | -4.1
55 | O=C(c1ccc2[nH]ccc2c1)N1CC[C@@H]2CN(CC3CC3)CCO[C@@H]2C1 | -7.61
56 | Cc1ccc(CN2CCC[C@]3(C(=O)O)CN(C)C[C@@H]3C2)s1 | -14.3
57 | c1cncc(COCc2cncc3c2CCN(Cc2ccoc2)C3)c1 | -9.45
58 | CC(C)N1[C@H](Cn2cncn2)C[C@@H]2CN(Cc3nccn3C)CC[C@@H]21 | -6.18
